From patent US10722575B2, “Use of 1,3-diphenylprop-2-en-1-one derivatives for treating liver disorders” (GENFIT, priority 2009, dated 2020) come the findings set out here.

Assay [1] has as its system hApoE2 KI/PPARalpha KO mice. As to the kind of experiment: hApoE2 KI/PPARalpha KO mice on Western diet, hepatic gene expression by quantitative RT-PCR. As to conditions: 30 mg/kg/day by gavage, 6 weeks. The assay is classed as in vivo. The procedure:
(§1) The compounds of the General Formula (I) were tested in vivo in a high fat diet mice model. Dyslipidemic “humanized” hApoE2 KI deficient for PPARalpha were fed a Western diet and treated during 6 weeks. The compounds of interest, including the Compound 29 of WO 2004/005233 at 30 mg/kg/day and the Compound 1 of WO 2007/147879 at 30 mg/kg/day were orally administrated by gavage. At the end of the protocol, animals were sacrificed, livers were harvested and the hepatic expression of relevant genes implicated in the liver inflammation and the fibrosis processes were evaluated by quantitative RT-PCR. In parallel, liver triglycerides contents were evaluated (Panels A-D). Statistical analysis was performed as indicated for FIG. 1.
Animals were fed a Western diet (20% saturated fat and 0.2% cholesterol, Harlan Teklad TD88137) during 2 weeks in the first study, that involved the daily administration of Cpd 29 (at 30 mg/kg/day by oral gavage), and during 6 weeks in the second study, that involved the daily administration of Compound 1 of WO 2007147879 (Cpd1, at 30 mg/kg/day by oral gavage). Control animals were treated with vehicle only (Carboxymethlycellulose 1%+Tween-80 0.1%). Animals had access to food and water ad libitum.
At the end of the studies, the animals were weighed and sacrificed under anesthesia. Blood was collected from the retro-orbital sinus; plasma was obtained by centrifugation (4 000 rpm, at 4° C. for 15 min) and subsequently frozen and stored at −20° C. Tissues and livers were isolated and snap-frozen in liquid nitrogen and stored at −80° C. for subsequent analysis (gene expression and biochemistry) or fixed in 4% paraformaldehyde for histology.
Total RNA was isolated from frozen livers using the NucleoSpin® 96 RNA kit (Macherey Nagel), according to the manufacturer's instructions. Reverse transcription was performed on 1 μg of total RNA by action of 1 μl of MMLV-RT enzyme (Invitrogen) during 1 hour at 37° C. in a total volume of 30 μl. The reaction conditions were 1× buffer (Invitrogen), 1.5 mM DTT (Invitrogen), 0.18 mM dNTPs (Promega), 200 ng pdN6 (Amersham), 30U RNase inhibitor (Promega). Quantitative PCR was then carried out using the MyiQ Single-Color Real-Time PCR Detection System (Biorad). Briefly PCR reactions were performed in 96 well plates on 5 μl of diluted reverse transcription mix using the iQ SYBR Green Supermix kit. The reaction conditions were: 25 μl of volume reaction, 3 mM of MgCl2, and 0.5 μl of each reverse and forward primer solutions (10 pMol), Tm of 60° C.
The quantity of fluorescence emitted is directly proportional to the quantity of complementary DNA present at the start of the reaction and amplified during the PCR. The relative levels of expression were determined using the standard curve for each transcript. The results were then normalized in regard to the signals obtained with the 36B4 control (a reference transcript for hepatic gene expression). The induction factor, i.e. the ratio between the relative signal induced by the compound according to the invention and the average of the values relating to the control group, was then calculated for each sample. The higher this factor, the more the compound promotes target gene expression. The final result is depicted as the average of the induction values in each experimental group.
(§2) In another study, the liver-specific anti-inflammatory and anti-fibrotic properties effects of Cpd 29 and Compound 1 of WO 2007/147879 (Cpd 1) were evaluated in the hApoE2 KI/PPARalpha KO mice that were fed a Western diet and daily treated with the selected compounds during 6 weeks.

In assay [2] the test system is hApoE2 KI/PPARalpha KO mice. As to the kind of experiment: hApoE2 KI/PPARalpha KO mice on Western diet, hepatic lipid analysis (liver triglycerides). The assay is classed as in vivo. The note with it: 30 mg/kg/day by gavage, 6 weeks, FIG. 4D. As to the method: as §1
Animals were fed a Western diet (20% saturated fat and 0.2% cholesterol, Harlan Teklad TD88137) during 2 weeks in the first study, that involved the daily administration of Cpd 29 (at 30 mg/kg/day by oral gavage), and during 6 weeks in the second study, that involved the daily administration of Compound 1 of WO 2007147879 (Cpd1, at 30 mg/kg/day by oral gavage). […]
as §2

In assay [3] the test system is human primary hepatic stellate cells (hHSC). As to the kind of experiment: PDGF-BB-induced hHSC proliferation, BrdU incorporation. In kind it is cell-based. As to conditions: 10 μM, PDGF-BB 10 ng/ml. The procedure:
(§3) Compounds were dissolved in dimethyl sulfoxide (DMSO, Fluka cat #41640)
(§4) The human primary hepatic stellate cells (hHSC) (ScienCell) were cultured in STeCM medium (ScienCell cat #5301) that was supplemented with 2% fetal bovine serum (FBS, ScienCell cat #0010), 1% penicillin/streptomycine (ScienCell cat #0503) and stellate cell growth supplement (SteCGS; ScienCell cat #5352). Culture plastics were coated with Poly-L Lysine (Sigma cat # P4707).
hHSC were plated at a density of 1.2×10^4 cells/well into 96-well plates and were cultured overnight at 37° C. and 5% CO2, followed by washing of cells with PBS (Invitrogen cat #14190) and replacing the growth medium with a serum-free and SteCGS-free medium for an additional 24 hours. For PDGF-induced proliferation assay, cells were pre-treated with a compound of General Formula (I) for 1 hour before the addition of PDGF-BB (10 ng/ml; R&D Systems cat #520-BB). Treatments were then continued for additional 20 hours.
Cell proliferation was measured by bromodeoxyuridine (BrdU) incorporation using a BrdU labeling and detection kit (Roche cat #11647229001). BrdU labeling solution was added to cells, followed by incubation for another 4 hours before fixation, addition of nucleases, addition of anti-BrdU-POD and peroxidase substrate. The absorbance at 405 nm (with a reference wavelength at 690 nm) was measured using an ELISA plate reader (Tecan).
In general terms: Dividing cells build labelled thymidine or BrdU into new DNA.

Assay [4] has the same test system. The assay can be described thus: TGFβ1-induced hHSC activation, gene expression by quantitative PCR. The assay is classed as cell-based. As to conditions: 10 μM, TGFβ1 1 ng/ml, 24 hours. The procedure: as §3, §4
The human primary hepatic stellate cells (hHSC) (ScienCell) were cultured under standard conditions, as described above. For experiments to determine gene expression patterns, hHSC were plated at a density of 7×10^4 cells/well into 24-well plates and were cultured overnight. Next day, culture medium was replaced by serum-free and SteCGS-free medium for an additional 16 hours. Cells were treated with a compound of General Formula (I) in addition to TGFβ1 (1 ng/ml) in a serum-free and SteCGS-free medium for 24 hours.
Total RNA was isolated using Nucleospin® 96 RNA kit (Macherey Nagel) following manufacturer's instructions. 100 ng of total RNA were reverse transcribed in cDNA using M-MLV RT (Moloney Murine Leukemia Virus Reverse Transcriptase) (Invitrogen cat #28025) in presence of RT buffer 1× (Invitrogen), 1 mM DTT (Invitrogen), 0.18 mM dNTPs (Promega), 200 ng pdN6 (Amersham) and 30U of RNase inhibitor (Promega).
Quantitative PCR was then carried out using the CFX96 TOUCH™ Real-Time PCR Detection System (Biorad). Briefly, PCR reactions were performed in 96 well plates on 5 μl of 5× diluted reverse transcription mix using the iQ SYBR Green Supermix kit. The experimental conditions were: 25 μl of volume reaction, 3 mM of MgCl2, and 0.5 μl each of reverse and forward primers (10 pMol).
Expression levels were normalized using the expression of 36B4 gene as reference (sequences SEQ ID NO: 1 and SEQ ID NO: 2 as shown above).
For each gene, the standard curves were drawn by selecting the best points (at least three points) in order to have PCR reaction efficiency close to 100% and a correlation coefficient close to 1. Expression levels were determined using the standard curve equation for both the housekeeping gene and the target gene (taking into account the specific PCR efficiency of each target gene).

Marks after values point to notes of the source that are not given here.

Consider `CSc1ccc(C(=O)CCc2cc(C)c(OC(C)(C)C(=O)O)c(C)c2)cc1` [Cpd 1, 2-[2,6-dimethyl-4-[3-[4-(methylthio)phenyl]-3-oxo-propyl]phenoxy]-2-methylpropanoic acid], for which the “liver expression of TNFα” value in assay [1] (FIG. 4A) was “inhibited”. For the same molecule, the “liver expression of TGFβ” value in assay [1] (FIG. 4B) is “inhibited”. For the same molecule, in assay [1] (FIG. 4C), the “liver expression of collagen” value was “inhibited”. The “triglycerides accumulation in the liver” value in assay [2] is “prevented”.
On to `Cc1cc(C=CC(=O)c2ccc(OCCC3CCCCC3)cc2)cc(C)c1OC(C)(C)C(=O)O` [Cpd 11 WO2005073184, 1-(4-Cyclohexylethyloxyphenyl)-3-(4-carboxydimethylmethyloxy-3,5-dimethylphenyl)prop-2-en-1-one], for which, in assay [3], the “Inhibition of the PDGF-BB-induced hHSC proliferation: BrdU Incorporation” value was −6%^. Besides, in assay [4], the “Inhibition of the TGFβ1-induced hHSC activation: Col1α1” value is recorded as −66% **, the “Inhibition of the TGFβ1-induced hHSC activation: Col4α1” value is −78% *** and the “Inhibition of the TGFβ1-induced hHSC activation: αSMA” value is −92% ***.
For `CCCCCCSc1ccc(C(=O)C=Cc2cc(C)c(OC(C)(C)C(=O)O)c(C)c2)cc1` [Cpd 84 US20070032543, 1-[4-hexylthiophenyl]-3-[3,5-dimethyl-4-carboxydimethylmethyloxyphenyl]prop-2-en-1-one], in that order: −33%, −60% **, −64% *** and −64% ***.
Regarding `COc1ccc(C(=O)C=Cc2cc(C)c(OC(C)(C)C(=O)O)c(C)c2)cc1` [Cpd 80 US20070032543, 1-[4-methyoxyphenyl]-3-[3,5-dimethyl-4-carboxydimethylmethyloxyphenyl]prop-2-en-1-one], the “Inhibition of the PDGF-BB-induced hHSC proliferation: BrdU Incorporation” value in assay [3] is given as −136% ***. Further, in assay [4], the “Inhibition of the TGFβ1-induced hHSC activation: Col1α1” value is listed as −64% **, the “Inhibition of the TGFβ1-induced hHSC activation: Col4α1” value was −66% *** and the “Inhibition of the TGFβ1-induced hHSC activation: αSMA” value is −55% ***.
On the same counts, the results for `Cc1cc(C=CC(=O)c2ccc(C(F)(F)F)cc2)cc(C)c1OC(C)(C)C(=O)O` [Cpd 58 US20070032543, 1-[4-trifluoromethylphenyl]-3-[3,5-dimethyl-4-carboxydimethylmethyloxyphenyl]prop-2-en-1-one] are −5%^, 55% *, −3% and 5%^.
